The values below come from PubChem BioAssay (NCI).

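In this assay, cells in 96-well plates receive the compound at five concentrations for 48 hours. Endpoints are linearly interpolated between the surrounding concentrations. TGI: total growth inhibition.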 Where only a bound is given, the exact number is not on record here.

Holding throughout (assay): NCI-60 cell line screen, 48 h
Assay [1] relates to A549 NSCLC.
The subject of assay [2] is HCT-15 colon.
In assay [3] the test system is LOX IMVI melanoma.
Assay [4] deals with MOLT-4 leukemia.
The test system of assay [5] is NCI/ADR-RES ovarian.
The subject of assay [6] is OVCAR-5 ovarian.
Assay [7] concerns RPMI-8226 leukemia.
The test system of assay [8] is SF-539 CNS.
Assay [9] deals with SK-MEL-28 melanoma.
Assay [10] concerns SK-MEL-5 melanoma.
In assay [11] the test system is SW-620 colon.
In assay [12] the test system is U251 CNS.
Assay [13] relates to UACC-257 melanoma.

With `COCc1cc2c(cc1/C=C/[N+](=O)[O-])OCO2`, the TGI was 32.2 µM in assay [1]; 36.8 µM in [2]; 67.9 µM in assay [3]; more than 100 µM in assay [4]; 47 µM in assay [5]; 30.6 µM in [6]. Further, the TGI is more than 100 µM in assay [7]; 44.9 µM in assay [8]; 25.2 µM in assay [9]; 37.6 µM in assay [10]; 40.7 µM in assay [11]; 31.6 µM in [12]. Further, in assay [13], the TGI was 30.8 µM.

With `COC(=O)/C=c1/c2ccccc2n2nc3ccccc3c12`, the TGI in [1] was more than 100 µM; in assay [2] it was more than 100 µM; in [3] it was more than 100 µM; in [4] it was 35.3 µM; in [5], more than 100 µM; in assay [6], more than 100 µM. The TGI in assay [7], in assay [8], in assay [9], in assay [10], in assay [11] and in [12] was more than 100 µM throughout. Moreover, the TGI in assay [13] was more than 100 µM.

For the molecule `COc1ccc(N=C(Nc2ccc(OC)cc2)C(=Nc2ccc(OC)cc2)Nc2ccc(OC)cc2)cc1`, the TGI in assay [1], in assay [2], in assay [3], in assay [4], in [5] and in assay [6] was more than 100 µM each time. Also, the TGI in [7], in assay [8], in assay [9], in [10], in [11] and in assay [12] was more than 100 µM in each case. In assay [13], this molecule registered a TGI of more than 100 µM.

For the molecule `CNC1=CC(=O)C2=C(C1=O)[C@H]1CC[C@]3(C)C(=O)CC[C@H]3[C@@H]1CC2`, the TGI in assay [1] is 49.9 µM; in [2], 27.5 µM; in assay [3], 23.7 µM; in assay [4], more than 49.1 µM; in assay [5], 42.1 µM; in assay [6], 51 µM. The TGI in [7] is 48.5 µM; in assay [8] it was 32.3 µM; in assay [9], 34.4 µM; in [10] it was 27.6 µM; in [11], more than 51.6 µM; in assay [12] it was more than 60.2 µM. The same molecule registered a TGI in assay [13] of 28.8 µM.

In the case of `COc1ccc2c(c1)c1c(n2CCN2CCCCC2)-c2ccccc2CC1`, the TGI in assay [1] came to 36.6 µM; in [2], 24.5 µM; in assay [3], 40.4 µM; in assay [4] it was 40.7 µM; in assay [5] it was 33.2 µM; in assay [6] it was 31.2 µM. Further, the TGI in assay [7] was found to be 56.1 µM; in assay [8], 27.4 µM; in assay [9], 38.5 µM; in [10] it was 37.3 µM; in [11], 37.8 µM; in assay [12] it was 30.5 µM. The TGI in assay [13] worked out at 32.1 µM.

As for `CC12Cc3cc4c(cc3C1(c1ccc([N+](=O)[O-])cc1)OCCO2)OCO4` (stereo not given), the TGI in assay [1], in [2], in assay [3], in [4], in assay [5] and in assay [6] was more than 100 µM in each case. The TGI in assay [7], in assay [8], in assay [9], in assay [10], in [11] and in [12] was more than 100 µM in each case. The same molecule registered a TGI in [13] of more than 100 µM.

Consider `Cc1cccc2c1NC(=S)[C@@H]1CCCN1C2=O`, for which the TGI in assay [1], in assay [2], in [3], in assay [4], in [5] and in assay [6] was more than 100 µM each time. For the same molecule, the TGI in assay [7], in assay [8], in assay [9], in assay [10], in [11] and in [12] was more than 100 µM in each case. The same molecule gave a TGI in [13] of more than 100 µM.

On to `Cc1c(NC(=S)Nc2ccc(Cl)cc2)c(=O)n(-c2ccccc2)n1C`, for which the TGI in assay [1], in assay [2], in assay [3], in assay [4], in assay [5] and in assay [6] was more than 100 µM throughout. Moreover, the TGI in [7], in [8], in [9], in [10], in [11] and in [12] was more than 100 µM throughout. Moreover, in assay [13], the TGI is more than 100 µM.

For `Clc1ccc(C2NN=C3c4ccccc4OCC32)cc1` (stereo not given), the TGI in [1] is more than 100 µM; in assay [2] it was 13.5 µM; in [3], 27.6 µM; in [4], 26.9 µM; in assay [5], 6.14 µM; in assay [6], more than 100 µM. The TGI in assay [7] is 6.93 µM; in assay [8] it was 7.17 µM; in assay [9] it was more than 85.6 µM; in [10] it was 20.4 µM; in assay [11], more than 25.3 µM; in [12], more than 56.8 µM. For the same molecule, the TGI in assay [13] was found to be 87.4 µM.

Turning to `O=[N+]([O-])c1ccc2nc(/C=C(\O)c3ccc(F)cc3)c(/C=C(\O)c3ccc(F)cc3)nc2c1`, the TGI was more than 100 µM in [1]; more than 100 µM in [2]; more than 100 µM in [3]; 43.5 µM in assay [4]; more than 100 µM in [5]; more than 100 µM in assay [6]. Moreover, the TGI in [7] is more than 100 µM; in assay [8] it was 56.3 µM; in [9], more than 100 µM; in assay [10] it was more than 100 µM; in [11] it was more than 100 µM; in assay [12], 70.5 µM. The molecule also showed a TGI in assay [13] of more than 100 µM.
